Experimental data from publication doi:10.1101/2025.11.06.686927v1 (biorxiv, 2025).

Columns and labels:
[1] = molecular target: CDK5/P25 (Homo sapiens, UniProt Q00535); assay: biochemical; settings: read-out: % of control remaining
[2] = molecular target: PIM1 (Homo sapiens, UniProt P11309); assay: biochemical; settings: read-out: % of control remaining
[3] = system: SH-SY5Y; assay: cells; parameters: species or system RPE-1, HCT116, U2OS; settings: Homo sapiens, 48 h, read-out: SHSY-5Y EC50
[4] = molecular target: T1, CLK1 (MmCLK1) (Mus musculus, UniProt P22518); assay: biochemical; settings: read-out: % of control remaining
T1 sequence (P22518 whole entry): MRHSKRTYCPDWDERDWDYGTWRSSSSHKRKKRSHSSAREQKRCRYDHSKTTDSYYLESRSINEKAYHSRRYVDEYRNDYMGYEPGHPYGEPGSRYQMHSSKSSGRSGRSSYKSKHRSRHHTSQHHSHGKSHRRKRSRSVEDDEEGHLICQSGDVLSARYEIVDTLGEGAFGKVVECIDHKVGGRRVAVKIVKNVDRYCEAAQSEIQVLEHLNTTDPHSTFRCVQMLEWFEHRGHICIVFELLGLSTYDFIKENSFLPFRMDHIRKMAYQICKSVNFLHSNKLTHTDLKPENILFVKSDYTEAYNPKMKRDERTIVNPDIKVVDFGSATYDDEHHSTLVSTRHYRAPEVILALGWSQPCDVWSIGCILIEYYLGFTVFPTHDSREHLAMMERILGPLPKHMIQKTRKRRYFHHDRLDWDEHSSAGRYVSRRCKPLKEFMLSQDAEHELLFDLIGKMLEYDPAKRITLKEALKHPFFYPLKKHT

[5] = molecular target: T2, CDK8-cyclin C (HsCDK8/Cyclin C) (Homo sapiens, UniProt P49336); assay: biochemical; settings: read-out: % of control remaining
T2 sequence (P49336 whole entry): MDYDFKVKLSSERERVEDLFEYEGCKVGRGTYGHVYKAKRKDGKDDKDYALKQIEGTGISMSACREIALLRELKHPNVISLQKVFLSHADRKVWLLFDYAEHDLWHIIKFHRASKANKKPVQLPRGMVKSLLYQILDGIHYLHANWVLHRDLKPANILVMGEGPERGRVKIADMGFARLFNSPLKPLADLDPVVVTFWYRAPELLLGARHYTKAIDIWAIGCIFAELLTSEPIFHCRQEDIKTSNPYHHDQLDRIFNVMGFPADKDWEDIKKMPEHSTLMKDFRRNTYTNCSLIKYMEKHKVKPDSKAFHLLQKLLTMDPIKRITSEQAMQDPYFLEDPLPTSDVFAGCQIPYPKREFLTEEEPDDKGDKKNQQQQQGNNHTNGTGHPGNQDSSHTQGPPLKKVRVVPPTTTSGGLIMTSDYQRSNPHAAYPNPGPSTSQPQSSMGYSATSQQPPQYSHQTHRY
T2 sequence (P24863 whole entry partner): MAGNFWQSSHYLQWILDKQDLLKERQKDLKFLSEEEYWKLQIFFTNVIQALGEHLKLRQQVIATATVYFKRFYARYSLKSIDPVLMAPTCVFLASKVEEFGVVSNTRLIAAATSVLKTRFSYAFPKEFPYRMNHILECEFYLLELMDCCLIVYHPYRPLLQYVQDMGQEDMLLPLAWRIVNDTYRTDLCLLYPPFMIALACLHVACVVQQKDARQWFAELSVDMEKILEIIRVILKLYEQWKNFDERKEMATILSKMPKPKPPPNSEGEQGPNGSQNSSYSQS

[6] = molecular target: CDK2/cyclin A (Homo sapiens, UniProt P24941); assay: biochemical; settings: read-out: % of control remaining
[7] = molecular target: T3, DYRK1A (RnDYRK1A-kd) (Rattus norvegicus, UniProt Q63470); assay: biochemical; settings: read-out: % of control remaining
[8] = molecular target: T4, HASPIN (Homo sapiens, UniProt Q8TF76); assay: biochemical; settings: read-out: % of control remaining
T4 sequence (Q8TF76 1-798): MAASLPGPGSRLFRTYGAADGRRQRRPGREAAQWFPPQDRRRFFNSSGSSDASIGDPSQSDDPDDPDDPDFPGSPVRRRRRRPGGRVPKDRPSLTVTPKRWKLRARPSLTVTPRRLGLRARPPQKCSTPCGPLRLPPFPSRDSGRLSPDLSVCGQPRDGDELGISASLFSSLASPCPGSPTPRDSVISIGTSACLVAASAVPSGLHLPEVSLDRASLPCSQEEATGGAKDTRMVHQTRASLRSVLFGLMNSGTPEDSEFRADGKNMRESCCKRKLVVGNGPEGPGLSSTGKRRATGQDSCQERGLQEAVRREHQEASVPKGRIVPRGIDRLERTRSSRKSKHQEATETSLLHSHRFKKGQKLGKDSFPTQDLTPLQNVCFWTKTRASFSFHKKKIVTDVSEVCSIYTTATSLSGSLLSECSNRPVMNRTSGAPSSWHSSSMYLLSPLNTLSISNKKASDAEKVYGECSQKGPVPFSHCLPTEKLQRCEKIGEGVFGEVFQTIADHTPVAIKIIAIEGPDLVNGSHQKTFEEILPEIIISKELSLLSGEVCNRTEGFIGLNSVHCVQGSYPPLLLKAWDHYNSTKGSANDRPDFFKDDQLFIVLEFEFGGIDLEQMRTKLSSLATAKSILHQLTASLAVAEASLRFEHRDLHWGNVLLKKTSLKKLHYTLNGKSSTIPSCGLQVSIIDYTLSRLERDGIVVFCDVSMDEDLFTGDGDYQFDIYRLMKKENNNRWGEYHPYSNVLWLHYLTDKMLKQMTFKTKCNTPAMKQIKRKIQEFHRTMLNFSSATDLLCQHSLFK

[9] = molecular target: T2, CDK8-cyclin C (HsCDK8/Cyclin C); assay: radiometric […]-ATP kinase assay, RBER-IRStide substrate; format: biochemical
[10] = in vitro; parameters: species or system HCT116, SH-SY5Y, U2OS; settings: human, rpe-1 cells
[11] = system: HCT116; assay: cells; parameters: species or system RPE-1, SH-SY5Y, U2OS; settings: Homo sapiens, HCT-116, 48 h, read-out: HCT116 EC50
[12] = system: U2OS; assay: cells; parameters: species or system RPE-1, HCT116, SH-SY5Y; settings: Homo sapiens, 48 h, read-out: U2OS EC50
[13] = molecular target: T1, CLK1 (MmCLK1); assay: radiometric […]-ATP kinase assay, peptide GRSRSRSRSRSR; format: biochemical; settings: read-out: % residual activity at 10 μM
[14] = molecular target: T3, DYRK1A (RnDYRK1A-kd); assay: radiometric […]-ATP kinase assay, peptide KKISGRLSPIMTEQ; format: biochemical; settings: read-out: % residual activity at 10 μM

Sequence of CDK5/P25 (Q00535 whole entry): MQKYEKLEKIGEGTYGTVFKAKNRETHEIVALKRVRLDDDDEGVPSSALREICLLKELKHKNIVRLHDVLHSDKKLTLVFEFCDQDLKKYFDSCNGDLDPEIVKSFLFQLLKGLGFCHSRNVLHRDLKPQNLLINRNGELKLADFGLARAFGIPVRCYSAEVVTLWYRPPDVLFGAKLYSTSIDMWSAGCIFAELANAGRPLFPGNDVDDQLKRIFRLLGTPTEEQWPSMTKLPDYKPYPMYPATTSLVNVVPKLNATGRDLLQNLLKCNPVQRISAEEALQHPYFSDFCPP
Sequence of CDK5/P25 (Q15078 whole entry partner): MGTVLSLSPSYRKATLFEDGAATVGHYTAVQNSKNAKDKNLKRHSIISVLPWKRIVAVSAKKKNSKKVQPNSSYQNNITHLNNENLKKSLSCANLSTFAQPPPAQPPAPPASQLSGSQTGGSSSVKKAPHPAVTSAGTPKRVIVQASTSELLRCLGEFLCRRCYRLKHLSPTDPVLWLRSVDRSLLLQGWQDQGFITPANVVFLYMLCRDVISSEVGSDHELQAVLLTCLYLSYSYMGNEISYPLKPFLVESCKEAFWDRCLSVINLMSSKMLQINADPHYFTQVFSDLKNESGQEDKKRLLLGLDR
Sequence of PIM1 (P11309 whole entry): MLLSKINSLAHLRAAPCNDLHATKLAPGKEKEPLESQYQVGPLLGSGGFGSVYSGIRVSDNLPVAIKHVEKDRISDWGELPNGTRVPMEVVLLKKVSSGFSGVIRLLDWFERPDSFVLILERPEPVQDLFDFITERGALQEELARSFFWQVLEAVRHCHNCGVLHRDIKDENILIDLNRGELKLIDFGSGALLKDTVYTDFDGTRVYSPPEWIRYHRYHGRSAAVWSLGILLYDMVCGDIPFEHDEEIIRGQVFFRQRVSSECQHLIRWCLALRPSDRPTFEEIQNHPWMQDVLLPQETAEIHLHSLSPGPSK

SMILES | remaining activity at 10 µM [1] [%] | remaining activity at 10 µM [2] [%] | EC50 [3] [µM] | remaining activity at 10 µM [4] [%] | remaining activity at 10 µM [5] [%] | remaining activity at 10 µM [6] [%] | remaining activity at 10 µM [7] [%] | remaining activity at 10 µM [8] [%] | IC50 [9] [µM] | EC50 [11] [µM] | EC50 [12] [µM] | remaining activity at 10 µM [13] [%] | remaining activity at 10 µM [14] [%] | CC50 at 48 h [10] [µM]
O=C(NC[C@@H]1Cc2cc(-c3cncnc3)ccc2O1)c1scc2c1CCCC2 [compound 47, #47] | 107 | 89 | > 50 | 109 | 5 | 81 | 75 | 118 | 0.2 | > 50 | > 50 |  |  | > 50
Cc1cccc(OCC(=O)Nc2ccc3oc(-c4cccnc4)nc3c2)c1C [compound 45, #45] | 115 | 127 | 8 | 143 | 6 | 82 | 73 | 144 | 0.03 | 19 | 9 |  |  | 43
O=C(NC[C@H]1CC(=O)N(c2ccc3c(c2)OCO3)C1)Nc1cccc(C(F)(F)F)c1 [compound 75, #75] | 101 | 95 | > 50 | 99 | 8 | 106 | 89 | 123 | 0.05 | > 50 | > 50 |  |  | > 50
O=C(CSc1ccc(-c2cccnc2)nn1)Nc1cccc(C(F)(F)F)c1 [compound 9, #9] | 107 | 71 | > 50 | 111 | 10 | 78 | 80 | 94 | 0.04 | > 50 | > 50 |  |  | > 50
Cc1ccc(NC(=O)Nc2ccc(Cc3ccncc3)cc2)cc1C [compound 82, #82] | 109 | 89 | 24 | 81 | 19 | 120 | 134 | 111 | 0.005 | 31 | 10 |  |  | > 50

Further lines, with some results ahead:

remaining activity at 10 µM [1] [%] | remaining activity at 10 µM [2] [%] | EC50 [3] [µM] | remaining activity at 10 µM [4] [%] | remaining activity at 10 µM [5] [%] | remaining activity at 10 µM [6] [%] | remaining activity at 10 µM [7] [%] | remaining activity at 10 µM [8] [%] | IC50 [9] [µM] | EC50 [11] [µM] | EC50 [12] [µM] | remaining activity at 10 µM [13] [%] | remaining activity at 10 µM [14] [%] | SMILES | CC50 at 48 h [10] [µM]
115 | 85 | 41 | 151 | 10 | 76 | 83 | 96 | 0.16 | 29 | 14 |  |  | O=C(Nc1ccc(Cc2ccncc2)cc1)Nc1cccc2ccccc12 [compound 22, #22] | 10
89 | 109 | > 50 |  | 11 | 73 | 80 | 116 | 0.1 | > 50 | > 50 | 37 |  | O=C(Nc1ccc2oc(-c3cccnc3)nc2c1)c1ncoc1-c1ccccc1Cl [compound 76, #76] | > 50
57 | 78 | > 50 |  | 15 | 62 |  |  | 0.03 | > 50 | 48 | 34 | -7 | N#Cc1ccc2ncnc(NCCc3ccccc3)c2c1 [Senexin A] | 41
